{"source": "patent US20250101023A1", "about": "“HETEROARYL DERIVATIVE AND USES THEREOF” (IUCF-HYU (INDUSTRY-UNIVERSITY COOPERATION FOUNDATION …, priority 2022, published 2025)", "key": {"[1]": {"biological_target": "KHS/MAP4K5 (Homo sapiens (Human), UniProt Q9Y4K4)", "assay": "Kinome-wide profiling", "format": "biochemical", "settings": "read-out: % Residual Activity (mean)"}, "[2]": {"biological_target": "STK32C/YANK3 (Homo sapiens (Human), UniProt Q86UX6)", "assay": "Kinome-wide profiling", "format": "biochemical", "settings": "read-out: % Residual Activity (mean)"}, "[3]": {"biological_target": "STK16 (Homo sapiens (Human), UniProt O75716)", "assay": "Kinome-wide profiling", "format": "biochemical", "settings": "read-out: % Residual Activity (mean)"}, "[4]": {"biological_target": "ITK (Homo sapiens (Human), UniProt Q08881)", "assay": "Kinome-wide profiling", "format": "biochemical", "settings": "read-out: % Residual Activity (mean)"}, "[5]": {"biological_target": "CDK12/CyclinK (Homo sapiens (Human), UniProt Q9NYV4)", "assay": "CDK12/cyclinK enzyme activity", "format": "biochemical", "settings": "in vitro"}, "[6]": {"biological_target": "CDK4/cyclin D2 (Homo sapiens (Human), UniProt P11802)", "assay": "Kinome-wide profiling", "format": "biochemical", "settings": "read-out: % Residual Activity (mean)"}, "[7]": {"biological_target": "JAK2 (Homo sapiens (Human), UniProt O60674)", "assay": "Kinome-wide profiling", "format": "biochemical", "settings": "read-out: % Residual Activity (mean)"}, "[8]": {"biological_target": "ROCK2 (Homo sapiens (Human), UniProt O75116)", "assay": "Kinome-wide profiling", "format": "biochemical", "settings": "read-out: % Residual Activity (mean)"}, "[9]": {"biological_target": "MYO3A (Homo sapiens (Human), UniProt Q8NEV4)", "assay": "Kinome-wide profiling", "format": "biochemical", "settings": "read-out: % Residual Activity (mean)"}, "[10]": {"biological_target": "MARK2/PAR-1Ba (Homo sapiens, UniProt Q7KZI7)", "assay": "Kinome-wide profiling", "format": "biochemical", "settings": "read-out: % Residual Activity (mean)"}, "[11]": {"biological_target": "YES/YES1 (Homo sapiens (Human), UniProt P07947)", "assay": "Kinome-wide profiling", "format": "biochemical", "settings": "read-out: % Residual Activity (mean)"}, "[12]": {"biological_target": "MUSK (Homo sapiens (Human), UniProt O15146)", "assay": "Kinome-wide profiling", "format": "biochemical", "settings": "read-out: % Residual Activity (mean)"}, "[13]": {"biological_target": "CDK2/cyclin A (Homo sapiens (Human), UniProt P24941)", "assay": "Kinome-wide profiling", "format": "biochemical", "settings": "read-out: % Residual Activity (mean)"}, "[14]": {"tested_on": "HCC1954 xenograft", "assay": "HCC1954 xenograft model, anticancer efficacy", "format": "in vivo, mouse", "settings": "20 mg/kg and 40 mg/kg, i.p. twice a week", "experimental": "A mouse efficacy experiment was conducted after obtaining approval from the Laboratory Animal Ethics Committee of GenNBio (Review No.: GN-IACUC-Research 22-02-07). SK-Br3 and HCC-1954 cells (1×10^6 cells each) mixed with Matrigel (BD Biosciences) were […] injected into 5-week-old female Balb/c nude mice (Orient Bio, Seongnam, Republic of Korea). After tumors reached a size of about 100 mm^3, the compound, trastuzumab (20 mg/kg), and the like were intraperitoneally injected into mice (n=8 per group)(vehicle: 8% DMSO, 4% Tween-80, 88% PBS). The tumor size was measured twice weekly for about 4 weeks and calculated as follows. Volume (mm^3)=(a×b^2)/2; “a”, maximum diameter; “b”, vertical diameter"}, "[15]": {"biological_target": "BMPR2 (Homo sapiens (Human), UniProt Q13873)", "sequence (Q13873 27-1038)": "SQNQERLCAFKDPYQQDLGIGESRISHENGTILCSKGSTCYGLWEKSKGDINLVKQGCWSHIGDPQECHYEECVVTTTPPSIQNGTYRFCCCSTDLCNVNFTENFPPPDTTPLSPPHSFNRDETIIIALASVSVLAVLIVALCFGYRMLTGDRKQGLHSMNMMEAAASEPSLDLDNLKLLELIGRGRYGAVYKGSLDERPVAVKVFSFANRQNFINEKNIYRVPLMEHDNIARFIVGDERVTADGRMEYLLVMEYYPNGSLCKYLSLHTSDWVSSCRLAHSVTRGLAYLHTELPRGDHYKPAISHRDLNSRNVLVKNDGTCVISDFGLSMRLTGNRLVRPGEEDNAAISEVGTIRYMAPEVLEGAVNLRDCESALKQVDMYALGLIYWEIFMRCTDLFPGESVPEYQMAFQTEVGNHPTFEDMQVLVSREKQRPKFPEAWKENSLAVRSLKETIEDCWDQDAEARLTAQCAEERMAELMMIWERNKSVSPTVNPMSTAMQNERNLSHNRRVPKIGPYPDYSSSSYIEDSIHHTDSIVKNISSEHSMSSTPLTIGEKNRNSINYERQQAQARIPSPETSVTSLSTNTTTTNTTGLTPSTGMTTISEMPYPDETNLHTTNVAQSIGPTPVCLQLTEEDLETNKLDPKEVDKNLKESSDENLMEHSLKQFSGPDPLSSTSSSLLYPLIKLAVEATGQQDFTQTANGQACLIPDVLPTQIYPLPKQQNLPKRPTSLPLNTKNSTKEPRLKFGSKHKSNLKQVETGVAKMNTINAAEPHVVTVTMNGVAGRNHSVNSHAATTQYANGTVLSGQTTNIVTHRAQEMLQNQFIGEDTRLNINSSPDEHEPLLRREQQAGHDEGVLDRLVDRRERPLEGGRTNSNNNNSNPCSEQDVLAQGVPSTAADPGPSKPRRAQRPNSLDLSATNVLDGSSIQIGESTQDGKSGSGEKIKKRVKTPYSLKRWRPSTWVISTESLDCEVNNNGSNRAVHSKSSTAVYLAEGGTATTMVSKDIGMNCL", "assay": "Kinome-wide profiling", "format": "biochemical", "settings": "read-out: % Residual Activity (mean)"}, "[16]": {"biological_target": "PBK/TOPK (Homo sapiens (Human), UniProt Q96KB5)", "assay": "Kinome-wide profiling", "format": "biochemical", "settings": "read-out: % Residual Activity (mean)"}, "[17]": {"biological_target": "TAOK2/TAO1 (Homo sapiens (Human), UniProt Q9UL54)", "assay": "Kinome-wide profiling", "format": "biochemical", "settings": "read-out: % Residual Activity (mean)"}, "[18]": {"biological_target": "DAPK2 (Homo sapiens (Human), UniProt Q9UIK4)", "assay": "Kinome-wide profiling", "format": "biochemical", "settings": "read-out: % Residual Activity (mean)"}, "[19]": {"biological_target": "CDK1/cyclin E (Homo sapiens (Human), UniProt P06493)", "assay": "Kinome-wide profiling", "format": "biochemical", "settings": "read-out: % Residual Activity (mean)"}, "[20]": {"biological_target": "CAMK1g (Homo sapiens (Human), UniProt Q96NX5)", "assay": "Kinome-wide profiling", "format": "biochemical", "settings": "read-out: % Residual Activity (mean)"}, "[21]": {"biological_target": "YSK4/MAP3K19 (Homo sapiens (Human), UniProt Q56UN5)", "assay": "Kinome-wide profiling", "format": "biochemical", "settings": "read-out: % Residual Activity (mean)"}, "[22]": {"biological_target": "EPHB3 (Homo sapiens (Human), UniProt P54753)", "sequence (P54753 34-998)": "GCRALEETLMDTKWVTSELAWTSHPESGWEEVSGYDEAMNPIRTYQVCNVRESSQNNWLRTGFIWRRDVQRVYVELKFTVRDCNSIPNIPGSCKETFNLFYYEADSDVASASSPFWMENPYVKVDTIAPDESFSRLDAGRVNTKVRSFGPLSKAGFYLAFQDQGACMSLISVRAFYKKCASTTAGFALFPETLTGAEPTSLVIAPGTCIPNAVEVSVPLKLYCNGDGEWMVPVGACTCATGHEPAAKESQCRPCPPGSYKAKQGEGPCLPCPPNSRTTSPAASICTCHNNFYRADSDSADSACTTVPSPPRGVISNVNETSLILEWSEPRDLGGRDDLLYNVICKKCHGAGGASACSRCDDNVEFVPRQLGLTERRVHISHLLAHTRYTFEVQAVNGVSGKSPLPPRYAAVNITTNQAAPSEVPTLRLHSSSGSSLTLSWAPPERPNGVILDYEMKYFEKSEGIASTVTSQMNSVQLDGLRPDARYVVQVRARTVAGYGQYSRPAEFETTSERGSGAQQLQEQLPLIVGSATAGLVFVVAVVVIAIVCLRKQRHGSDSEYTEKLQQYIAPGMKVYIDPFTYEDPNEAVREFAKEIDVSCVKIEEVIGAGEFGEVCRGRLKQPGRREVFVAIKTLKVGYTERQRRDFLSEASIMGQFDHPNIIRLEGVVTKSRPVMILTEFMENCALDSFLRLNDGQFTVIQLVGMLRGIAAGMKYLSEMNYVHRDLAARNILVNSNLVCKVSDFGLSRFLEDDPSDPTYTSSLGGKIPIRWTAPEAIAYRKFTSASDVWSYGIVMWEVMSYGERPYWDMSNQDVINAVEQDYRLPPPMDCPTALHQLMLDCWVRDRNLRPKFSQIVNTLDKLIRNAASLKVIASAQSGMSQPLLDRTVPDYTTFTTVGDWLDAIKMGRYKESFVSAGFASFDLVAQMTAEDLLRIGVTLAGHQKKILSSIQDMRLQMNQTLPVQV", "assay": "Kinome-wide profiling", "format": "biochemical", "settings": "read-out: % Residual Activity (mean)"}, "[23]": {"biological_target": "Aurora B (Homo sapiens (Human), UniProt Q96GD4)", "assay": "Kinome-wide profiling", "format": "biochemical", "settings": "read-out: % Residual Activity (mean)"}, "[24]": {"biological_target": "GRK7 (Homo sapiens (Human), UniProt Q8WTQ7)", "sequence (Q8WTQ7 whole entry)": "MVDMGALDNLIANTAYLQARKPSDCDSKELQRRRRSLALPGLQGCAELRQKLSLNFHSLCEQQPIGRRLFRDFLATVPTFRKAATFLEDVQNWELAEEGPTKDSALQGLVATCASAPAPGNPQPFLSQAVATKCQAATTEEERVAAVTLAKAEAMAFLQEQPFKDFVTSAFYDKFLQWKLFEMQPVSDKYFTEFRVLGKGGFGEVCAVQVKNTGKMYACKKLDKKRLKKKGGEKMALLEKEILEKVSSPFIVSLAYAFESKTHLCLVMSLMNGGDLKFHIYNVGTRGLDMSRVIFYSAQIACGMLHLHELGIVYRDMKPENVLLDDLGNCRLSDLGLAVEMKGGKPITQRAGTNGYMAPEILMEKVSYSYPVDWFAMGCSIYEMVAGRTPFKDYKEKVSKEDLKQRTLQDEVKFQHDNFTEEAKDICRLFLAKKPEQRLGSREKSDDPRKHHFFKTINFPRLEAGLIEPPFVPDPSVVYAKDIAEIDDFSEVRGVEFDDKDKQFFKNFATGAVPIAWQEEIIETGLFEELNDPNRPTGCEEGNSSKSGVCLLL", "assay": "Kinome-wide profiling", "format": "biochemical", "settings": "read-out: % Residual Activity (mean)"}, "[25]": {"biological_target": "MEK2 (Homo sapiens (Human), UniProt P36507)", "sequence (P36507 whole entry)": "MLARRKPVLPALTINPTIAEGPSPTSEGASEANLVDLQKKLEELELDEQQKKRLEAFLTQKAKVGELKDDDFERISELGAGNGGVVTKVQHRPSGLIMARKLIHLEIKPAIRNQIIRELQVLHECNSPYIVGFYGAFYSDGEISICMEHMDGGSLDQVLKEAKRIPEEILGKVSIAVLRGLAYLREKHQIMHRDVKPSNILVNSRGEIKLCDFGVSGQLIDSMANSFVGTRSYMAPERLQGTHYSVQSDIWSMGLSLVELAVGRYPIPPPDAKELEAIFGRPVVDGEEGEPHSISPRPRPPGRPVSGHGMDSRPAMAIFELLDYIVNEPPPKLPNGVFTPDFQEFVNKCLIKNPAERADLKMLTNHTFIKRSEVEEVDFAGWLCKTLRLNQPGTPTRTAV", "assay": "Kinome-wide profiling", "format": "biochemical", "settings": "read-out: % Residual Activity (mean)"}, "[26]": {"biological_target": "MRCKb/CDC42BPB (Homo sapiens (Human), UniProt Q9Y5S2)", "sequence (Q9Y5S2 whole entry)": "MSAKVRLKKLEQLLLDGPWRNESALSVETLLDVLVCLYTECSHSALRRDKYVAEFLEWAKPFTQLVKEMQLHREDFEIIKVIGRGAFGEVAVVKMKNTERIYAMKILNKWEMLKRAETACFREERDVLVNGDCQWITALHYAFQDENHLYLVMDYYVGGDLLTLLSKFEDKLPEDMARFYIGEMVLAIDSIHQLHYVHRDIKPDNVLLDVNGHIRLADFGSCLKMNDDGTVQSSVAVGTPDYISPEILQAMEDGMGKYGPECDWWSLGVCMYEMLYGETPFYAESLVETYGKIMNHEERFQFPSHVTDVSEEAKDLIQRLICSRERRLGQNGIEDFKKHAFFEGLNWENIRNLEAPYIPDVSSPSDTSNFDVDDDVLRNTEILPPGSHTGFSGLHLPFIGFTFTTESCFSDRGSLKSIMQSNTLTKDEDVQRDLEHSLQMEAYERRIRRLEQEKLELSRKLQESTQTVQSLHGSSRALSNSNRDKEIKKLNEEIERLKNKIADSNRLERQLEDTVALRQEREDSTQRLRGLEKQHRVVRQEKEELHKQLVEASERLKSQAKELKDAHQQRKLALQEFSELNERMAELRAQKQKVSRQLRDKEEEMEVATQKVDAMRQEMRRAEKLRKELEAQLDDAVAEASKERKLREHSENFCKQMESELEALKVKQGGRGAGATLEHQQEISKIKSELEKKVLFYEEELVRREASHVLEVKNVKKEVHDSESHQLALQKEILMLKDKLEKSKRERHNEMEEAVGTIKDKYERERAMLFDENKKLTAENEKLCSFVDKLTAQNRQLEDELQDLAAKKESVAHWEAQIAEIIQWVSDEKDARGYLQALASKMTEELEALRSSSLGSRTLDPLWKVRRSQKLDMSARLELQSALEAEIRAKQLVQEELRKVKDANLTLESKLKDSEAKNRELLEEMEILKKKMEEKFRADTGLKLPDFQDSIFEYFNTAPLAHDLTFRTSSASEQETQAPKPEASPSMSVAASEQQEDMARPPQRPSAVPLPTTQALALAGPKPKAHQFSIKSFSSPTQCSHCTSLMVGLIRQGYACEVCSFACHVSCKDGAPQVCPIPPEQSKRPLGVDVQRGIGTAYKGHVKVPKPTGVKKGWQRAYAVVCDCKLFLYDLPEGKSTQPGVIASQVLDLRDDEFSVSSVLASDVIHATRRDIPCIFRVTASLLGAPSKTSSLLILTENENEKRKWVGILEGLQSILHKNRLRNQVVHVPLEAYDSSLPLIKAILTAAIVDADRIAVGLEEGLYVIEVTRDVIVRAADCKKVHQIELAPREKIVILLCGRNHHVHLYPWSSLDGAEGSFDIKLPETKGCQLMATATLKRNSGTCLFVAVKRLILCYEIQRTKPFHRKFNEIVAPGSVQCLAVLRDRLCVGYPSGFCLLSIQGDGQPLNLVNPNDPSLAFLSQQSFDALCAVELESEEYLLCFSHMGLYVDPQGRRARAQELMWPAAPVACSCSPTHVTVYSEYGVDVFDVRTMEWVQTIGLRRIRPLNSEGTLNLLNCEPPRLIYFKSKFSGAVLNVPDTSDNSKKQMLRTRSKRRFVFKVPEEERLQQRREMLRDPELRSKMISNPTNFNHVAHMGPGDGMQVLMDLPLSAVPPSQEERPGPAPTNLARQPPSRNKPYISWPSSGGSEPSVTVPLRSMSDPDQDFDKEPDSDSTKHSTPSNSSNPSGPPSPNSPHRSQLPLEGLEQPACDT", "assay": "Kinome-wide profiling", "format": "biochemical", "settings": "read-out: % Residual Activity (mean)"}, "[27]": {"biological_target": "MARK3 (Homo sapiens (Human), UniProt P27448)", "assay": "Kinome-wide profiling", "format": "biochemical", "settings": "read-out: % Residual Activity (mean)"}, "[28]": {"biological_target": "LOK/STK10 (Homo sapiens (Human), UniProt O94804)", "assay": "Kinome-wide profiling", "format": "biochemical", "settings": "read-out: % Residual Activity (mean)"}, "[29]": {"biological_target": "DYRK1/DYRKIA (Homo sapiens (Human), UniProt Q13627)", "assay": "Kinome-wide profiling", "format": "biochemical", "settings": "read-out: % Residual Activity (mean)"}, "[30]": {"biological_target": "PLK1 (Homo sapiens (Human), UniProt P53350)", "assay": "Kinome-wide profiling", "format": "biochemical", "settings": "read-out: % Residual Activity (mean)"}, "[31]": {"biological_target": "FGFR1 (Homo sapiens (Human), UniProt P11362)", "assay": "Kinome-wide profiling", "format": "biochemical", "settings": "read-out: % Residual Activity (mean)"}, "[32]": {"biological_target": "SNARK/NUAK2 (Homo sapiens (Human), UniProt Q9H093)", "assay": "Kinome-wide profiling", "format": "biochemical", "settings": "read-out: % Residual Activity (mean)"}, "[33]": {"biological_target": "SBK1 (Homo sapiens (Human), UniProt Q52WX2)", "assay": "Kinome-wide profiling", "format": "biochemical", "settings": "read-out: % Residual Activity (mean)"}, "[34]": {"biological_target": "FLT3 (Homo sapiens (Human), UniProt P36888)", "assay": "Kinome-wide profiling", "format": "biochemical", "settings": "read-out: % Residual Activity (mean)"}, "[35]": {"biological_target": "CK2a (Homo sapiens (Human), UniProt P68400)", "sequence (P68400 whole entry)": "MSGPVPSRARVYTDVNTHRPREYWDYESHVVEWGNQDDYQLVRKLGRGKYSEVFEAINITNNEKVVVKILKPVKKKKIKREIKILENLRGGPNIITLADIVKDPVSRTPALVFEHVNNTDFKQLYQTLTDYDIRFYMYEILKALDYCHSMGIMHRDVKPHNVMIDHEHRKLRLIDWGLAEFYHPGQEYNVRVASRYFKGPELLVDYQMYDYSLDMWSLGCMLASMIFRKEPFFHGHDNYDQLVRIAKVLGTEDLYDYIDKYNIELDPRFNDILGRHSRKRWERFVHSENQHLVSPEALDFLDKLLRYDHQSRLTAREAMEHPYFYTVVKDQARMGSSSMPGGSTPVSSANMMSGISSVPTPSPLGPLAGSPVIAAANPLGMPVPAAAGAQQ", "assay": "Kinome-wide profiling", "format": "biochemical", "settings": "read-out: % Residual Activity (mean)"}}, "data": [{"compound": "CCn1cnc2c(NCc3ccc(-c4ccccn4)nc3)nc(-c3ccc(N)nc3)nc21", "note": "[Example 53, N-([2,2′-bipyridin]-5-ylmethyl)-2-(6-aminopyridin-3-yl)-9-ethyl-9H-purin-6-amine]", "values": [{"measurement": "remaining activity at 10 µM", "setting": "[1]", "value": 88.3, "unit": "%"}, {"measurement": "remaining activity at 10 µM", "setting": "[2]", "value": 86.7, "unit": "%"}, {"measurement": "remaining activity at 10 µM", "setting": "[3]", "value": 35.9, "unit": "%"}, {"measurement": "remaining activity at 10 µM", "setting": "[4]", "value": 81.7, "unit": "%"}, {"measurement": "IC50", "setting": "[5]", "value": 0.03, "unit": "µM"}, {"measurement": "remaining activity at 10 µM", "setting": "[6]", "value": 21.8, "unit": "%"}, {"measurement": "remaining activity at 10 µM", "setting": "[7]", "value": 87, "unit": "%"}, {"measurement": "remaining activity at 10 µM", "setting": "[8]", "value": 92.2, "unit": "%"}, {"measurement": "remaining activity at 10 µM", "setting": "[9]", "value": 71.3, "unit": "%"}, {"measurement": "remaining activity at 10 µM", "setting": "[10]", "value": 74.3, "unit": "%"}, {"measurement": "remaining activity at 10 µM", "setting": "[11]", "value": 20.6, "unit": "%"}, {"measurement": "remaining activity at 10 µM", "setting": "[12]", "value": 10.2, "unit": "%"}, {"measurement": "remaining activity at 10 µM", "setting": "[13]", "value": 1.19, "unit": "%"}, {"measurement": "anticancer efficacy", "setting": "[14]", "value": "dose-dependent anticancer efficacy"}, {"measurement": "remaining activity at 10 µM", "setting": "[15]", "value": 52.4, "unit": "%"}, {"measurement": "remaining activity at 10 µM", "setting": "[16]", "value": 93.5, "unit": "%"}, {"measurement": "remaining activity at 10 µM", "setting": "[17]", "value": 23.8, "unit": "%"}, {"measurement": "remaining activity at 10 µM", "setting": "[18]", "value": 85.7, "unit": "%"}, {"measurement": "remaining activity at 10 µM", "setting": "[19]", "value": 7.49, "unit": "%"}, {"measurement": "remaining activity at 10 µM", "setting": "[20]", "value": 54.3, "unit": "%"}, {"measurement": "remaining activity at 10 µM", "setting": "[21]", "value": 96.8, "unit": "%"}, {"measurement": "remaining activity at 10 µM", "setting": "[22]", "value": 66, "unit": "%"}, {"measurement": "remaining activity at 10 µM", "setting": "[23]", "value": 73, "unit": "%"}, {"measurement": "remaining activity at 10 µM", "setting": "[24]", "value": 49.7, "unit": "%"}, {"measurement": "remaining activity at 10 µM", "setting": "[25]", "value": 176, "unit": "%"}, {"measurement": "remaining activity at 10 µM", "setting": "[26]", "value": 99.3, "unit": "%"}, {"measurement": "remaining activity at 10 µM", "setting": "[27]", "value": 83.1, "unit": "%"}, {"measurement": "remaining activity at 10 µM", "setting": "[28]", "value": 41.4, "unit": "%"}, {"measurement": "remaining activity at 10 µM", "setting": "[29]", "value": 3.85, "unit": "%"}, {"measurement": "remaining activity at 10 µM", "setting": "[30]", "value": 68.3, "unit": "%"}, {"measurement": "remaining activity at 10 µM", "setting": "[31]", "value": 28.8, "unit": "%"}, {"measurement": "remaining activity at 10 µM", "setting": "[32]", "value": 59, "unit": "%"}, {"measurement": "remaining activity at 10 µM", "setting": "[33]", "value": 94.5, "unit": "%"}, {"measurement": "remaining activity at 10 µM", "setting": "[34]", "value": 40.2, "unit": "%"}, {"measurement": "remaining activity at 10 µM", "setting": "[35]", "value": 84.2, "unit": "%"}]}]}
